Reference: patent US20160106687A1, “HUMAN THERAPEUTIC AGENTS” (Life Plus, LLC, priority 2014, published 2016)

How the values were obtained:
Assay type in all cases: cell-based
[1] = tested on: human prostate cancer cells (22rv1); assay: Cell death in prostate cancer spheroids, PrestoBlue; conditions: techniques of Example 1
Method: (§1) The respective cells were individually cultured in a growth medium prepared using RPMI-1640 medium containing 11.1 mM D-glucose with 10% fetal bovine serum, 10 mM HEPES, 2 mM L-glutamine, 1 mM sodium pyruvate, 0.05 mM 2-mercaptoethanol, and Antibiotic-Antimycotic. These cells were maintained in T75 tissue culture flasks in a humidified incubator at 37° C. and 5% CO2. The media were changed on a third day after cell plating, and the cells were passaged on day 5 by trypsinization.
(§2) Custom-made micromolds with 100 um diameter wells were loaded with the cells (U.S. Pat. No. 8,735,154, incorporated by reference herein). The media were changed every day by partial replacement. Cell aggregates were allowed to form in the micromolds for 72 hours and then were transferred to a 100 mm non-treated tissue culture dishes for 3 additional days. The spheroids were passed through 70 um and 100 μm cell strainers (#3431751 and #43152, Corning, Tewksbury, Mass.) and maintained in HEPES Balanced Salt Solution comprised of: 20 mM HEPES, 114 mM NaCl, 4.7 mM KCl, 1.2 mM KH2PO4, 1.16 mM MgSO4, 2.5 mM CaCl2, 25.5 mM NaHCO3 and 0.2% bovine serum albumin (fatty acid free), pH 7.2.
(§3) The cells were treated and tested as set forth in Example 1.

[2] = tested on: human lung cancer cells (H358); assay: Cell death in lung cancer spheroids, PrestoBlue; conditions: techniques of Example 1
Method: as §1, §2
The lymphomas treatment methods used were identical to those described in Example 2 relative to the pediatric leukemia cells, whereas the lung cancer treatment method was the same as described in Example 1.

[3] = tested on: human ovarian cancer cells (A1847); assay: Cell death in ovarian cancer spheroids, PrestoBlue; conditions: techniques of Example 1
Method: as §1, §2, §3

[4] = tested on: ovarian cancer cells; assay: Synergism with doxorubicin on ovarian cancer spheroids; conditions: low doses, up to 0.158 μM
Method: In this test, the synergism of GZ17-6.02 with doxorubicin (a common chemotherapy drug) was tested on ovarian cancer cells. In this test, increasing doses of doxorubicin were administered to ovarian cancer spheroids and cell deaths were measured, as described in Example 1. The protocol involved testing doxorubicin alone at various dosages (FIG. 8, doxorubicin alone—closed circles), with comparative tests using the various dosages of doxorubicin in combination with either 0.2 mg/mL (FIG. 8 open circles) or 0.4 mg/mL (FIG. 8 closed triangles) GZ17-6.02. Additionally, the induced cell death results from use of 0.2 mg/mL GZ17-6.02 alone (FIG. 8, line A) and 0.4 mg/mL GZ17-6.02 alone (FIG. 8, line B) were determined.

Row | SMILES | anticancer effects (cell number versus increasing concentrations), compound alone [1] | anticancer effects (cell number versus increasing concentrations), compound alone [2] | anticancer effects (cell number versus increasing concentrations), compound alone [3] | cell death, doxorubicin alone [4]
1 | COc1cccc(C=O)c1O [O-vanillin] | demonstrated anticancer effects | demonstrated anticancer effects | demonstrated anticancer effects | –
2 | COc1cccc2c1C(=O)c1c(O)c3c(c(O)c1C2=O)C[C@@](O)(C(=O)CO)C[C@@H]3O[C@H]1C[C@H](N)[C@H](O)[C@H](C)O1 [doxorubicin] | – | – | – | ineffective
3 | COc1ccc2c3c([nH]c2c1)C(C)=NCC3 [harmaline] | demonstrated anticancer effects | demonstrated anticancer effects | demonstrated anticancer effects | –
4 | CC1=NCCc2c1[nH]c1cc(O)ccc21.Cl [harmalol hydrochloride] | demonstrated anticancer effects | demonstrated anticancer effects | demonstrated anticancer effects | –
5 | Cc1nccc2c1[nH]c1cc(O)ccc12.Cl [harmole hydrochloride] | demonstrated anticancer effects | demonstrated anticancer effects | demonstrated anticancer effects | –
6 | COc1ccc(C(=O)O)cc1O [isovanillic acid] | demonstrated anticancer effects | demonstrated anticancer effects | demonstrated anticancer effects | –
7 | COc1ccc(CO)cc1O [isovanillyl alcohol] | demonstrated anticancer effects | demonstrated anticancer effects | demonstrated anticancer effects | –
8 | COc1ccc2c3c([nH]c2c1)[C@@H](C)NCC3 [tetrahydro-harmine] | demonstrated anticancer effects | demonstrated anticancer effects | demonstrated anticancer effects | –
9 | COc1cc(C=O)ccc1O [vanillin] | demonstrated anticancer effects | demonstrated anticancer effects | demonstrated anticancer effects | –
